Measurements from patent US20080070852A1, “3-Beta-D-Ribofuranosylthiazolo[ 4,5-D] Pyridimine Nucleosides and Uses Thereof” (priority 2004, published 2008).
Where “and” joins values, the source holds several entries; their conditions need not be identical. Identical values can stand only once. Entries after “also recorded” stand apart in the source; their conditions may differ. Counter-ions that a name gives are not always drawn.

Assays:
[1] = system: interferon alpha (Mu-IFN-α); assay: Murine interferon alpha in plasma of dosed mice; format: in vivo; details: for Plasma Concentration of Interferon Alpha (Mu-IFN-α), Mean / Plasma Concentration of Interferon Alpha (Mu-IFN-α), Individual Value: single oral 73.0 mg/kg dose
Excerpt: The normal mouse provides a useful system for the assessment of the degree to which the inventions described herein provide material improvement in the oral delivery of 1 (isatoribine). Not only can one measure the plasma concentrations of isatoribine arising from oral administration of the said prodrug(s) but also the extensive immunological research conducted in the mouse has provided reagents suitable for measuring the levels of interferon alpha, a cytokine of interest reflecting one of the desired biologic activities of isatoribine.
Table 1 records the results of an assay for murine interferon alpha in the plasma of mice that were dosed two times with isatoribine, formulated in bicarbonate, at a level of 50 mg/kg by the oral route.
Table 2 records the results of assays for murine interferon alpha in the plasma of mice that first were dosed with bicarbonate and then four hours later were dosed orally with isatoribine, formulated in bicarbonate, at a level of 50 mg/kg. Interferon was reported in the plasma from four mice, including two that had received the bicarbonate vehicle dose.
Table 3 records the results of assays for murine interferon alpha in the plasma of mice that were dosed orally with val-isatoribine, dissolved in bicarbonate, at a dose that is equivalent to 50/mg/kg of isatoribine on a molar basis. […] Interferon was detected in all mice assayed at a given time point, indicating the reliability of the effect following val-isatoribine administration.
In other experiments, plasma levels of isatoribine and interferon alpha were measured in mice that were dosed with isatoribine by the intravenous route, and these levels were compared to the levels of isatoribine and interferon alpha arising after oral administration of val-isatoribine. […] Thus, oral val-isatoribine provides levels of isatoribine and interferon that are approximately 50% of those observed after intravenous administration of isatoribine itself.

[2] = Systemic exposure to isatoribine after oral administration to beagle dogs; format: in vivo; details: both 10 and 50 mg/kg
Procedure: The effect of a prodrug (val-isatoribine, 3) on the systemic exposure to isatoribine (1) after oral administration to beagle dogs was investigated. Isatoribine was prepared in sodium bicarbonate solution.
Four male and four female adult beagle dogs weighing between 15 to 27 kg and approximately 1-2 years old were used at the beginning of the study. The animals were divided into 2 groups of 2 males and 2 females each. The test material was administered by gavage on Days 1 and 8, allowing a 7-day washout period between administrations. Blood samples (2 mL) were collected from each animal at predose, 15, 30 minutes, 1, 2, 3, 4, 6, 8 and 10 hours into lithium heparin tubes after each dosing. The plasma was frozen at −70° C. until analysis. The plasma was analyzed for isatoribine by an HPLC-MS/MS assay.

beagle dogs = assay: Toxicology studies in beagle dogs (GI tolerance); details: dogs; for Emesis or loose stool / GI lesions or irritation: Oral Val-Isatoribine
Procedure: Formal toxicology studies of intravenously administered isatoribine and orally administered isatoribine and val-isatoribine were conducted in beagle dogs.
In each case the compound was administered as a solution, by gavage or by intravenous infusion. Multiple parameters were assessed, as is customary in a toxicology study. In the studies providing higher potential exposure to isatoribine, the plasma concentration of isatoribine was assessed by a LC/MS method.

in vitro = in vitro ADME; details: human, Caco-2
Excerpt: (§1) See, e.g., Hilgers, A. R. et al., Pharm. Res., 20(8), 1149-55 (August 2003).

Caco-2 cells = assay: in vitro; format: in vitro ADME; details: human
Excerpt: as §1

[3] = oral dosing, studies of Tables 1-3
[4] = isatoribine equivalent applied dose 8.1 mg/kg
[5] = isatoribine equivalent applied dose 16 mg/kg
[6] = isatoribine equivalent applied dose 32 mg/kg
[7] = isatoribine equivalent applied dose 64 mg/kg

CC(C)[C@H](N)C(=O)OC[C@H]1O[C@@H](n2c(=O)sc3c(O)nc(N)nc32)[C@H](O)[C@@H]1O (as salt: hydrochloride) [Compound 3, 5-Amino-3-(5′-O-L-valinyl-β-D-ribofuranosyl)thiazolo[4,5-d]pyrimidine-2,7-dione Dihydrochloride]
melting point: 166 to 168 °C (dec.)

CN[C@H](C(=O)OC[C@H]1O[C@@H](n2c(=O)sc3c(O)nc(N)nc32)[C@H](O)[C@@H]1O)C(C)C (as salt: hydrochloride) [Compound 11, 5-Amino-3-(5′-O-[α-L-N-methylvalinyl]-β-D-ribofuranosyl)thiazolo[4,5-d]pyrimidine-2,7-dione Hydrochloride]
melting point: > 180 °C (dec.)

CC(C)[C@H](N)C(=O)OC[C@H]1O[C@@H](n2c(=O)sc3c(O)nc(N)nc32)[C@H](O)[C@@H]1O [Compound 3, 5-Amino-3-(5′-O-L-valinyl-β-D-ribofuranosyl)thiazolo[4,5-d]pyrimidine-2,7-dione Dihydrochloride]
increase of magnitude of average and peak interferon response versus isatoribine ([1]; mice, oral): twofold | level of interferon relative to intravenous isatoribine ([1]; mice, oral, 50 mg/kg isatoribine molar equivalent, vs intravenous isatoribine 25 mg/kg, FIG. 1): approximately 50% | interferon in plasma ([1]; mice, oral, equivalent to 50 mg/kg isatoribine): readily measurable at 1.0 hour, 1.5 hours, and 2.0 hours after dosing | Plasma Concentration of Interferon Alpha (Mu-IFN-α), Mean ([1]; mice, 0.00 h): 0.00 pg/mL | Plasma Concentration of Interferon Alpha (Mu-IFN-α), Individual Value ([1]; mice, 0.00 h, listed as Val-Isatoribine, Dihydrochloride, 73 mg/kg): BQL (Below the Quantifiable Limit < 12.5 pg/mL); also recorded: BQL^125 pg/mL; also recorded: BQL^25 pg/mL | Plasma Concentration of Interferon Alpha (Mu-IFN-α), Individual Value ([1]; mice, 0.25 h): BQL (Below the Quantifiable Limit < 12.5 pg/mL) | Plasma Concentration of Interferon Alpha (Mu-IFN-α), Mean ([1]; mice, 0.25 h): 0.00 pg/mL | Plasma Concentration of Interferon Alpha (Mu-IFN-α), Mean ([1]; mice, 0.50 h): 0.00 pg/mL | Plasma Concentration of Interferon Alpha (Mu-IFN-α), Individual Value ([1]; mice, 0.50 h, listed as Val-Isatoribine, Dihydrochloride, 73 mg/kg): BQL^25 pg/mL; also recorded: BQL (Below the Quantifiable Limit < 12.5 pg/mL) | Plasma Concentration of Interferon Alpha (Mu-IFN-α), Mean ([1]; mice, 0.75 h): 0.00 pg/mL | Plasma Concentration of Interferon Alpha (Mu-IFN-α), Individual Value ([1]; mice, 0.75 h, listed as Val-Isatoribine, Dihydrochloride, 73 mg/kg): BQL (Below the Quantifiable Limit < 12.5 pg/mL); also recorded: BQL^25 pg/mL | Plasma Concentration of Interferon Alpha (Mu-IFN-α), Mean ([1]; mice, 1.00 h): 129.1 pg/mL | Plasma Concentration of Interferon Alpha (Mu-IFN-α), Individual Value ([1]; mice, 1.00 h, listed as Val-Isatoribine, Dihydrochloride, 73 mg/kg): 173.2 pg/mL and 125.1 pg/mL and 89.0 pg/mL | Plasma Concentration of Interferon Alpha (Mu-IFN-α), Mean ([1]; mice, 1.50 h): 214.5 pg/mL | Plasma Concentration of Interferon Alpha (Mu-IFN-α), Individual Value ([1]; mice, 1.50 h, listed as Val-Isatoribine, Dihydrochloride, 73 mg/kg): 202.9 pg/mL and 145.9 pg/mL and 294.8 pg/mL | Plasma Concentration of Interferon Alpha (Mu-IFN-α), Mean ([1]; mice, 2.00 h): 108.5 pg/mL | Plasma Concentration of Interferon Alpha (Mu-IFN-α), Individual Value ([1]; mice, 2.00 h, listed as Val-Isatoribine, Dihydrochloride, 73 mg/kg): 49.2 pg/mL and 137.9 pg/mL and 138.3 pg/mL | Plasma Concentration of Interferon Alpha (Mu-IFN-α), Individual Value ([1]; mice, 3.00 h): BQL^25 pg/mL | Plasma Concentration of Interferon Alpha (Mu-IFN-α), Mean ([1]; mice, 3.00 h): 0.00 pg/mL | Plasma Concentration of Interferon Alpha (Mu-IFN-α), Mean ([1]; mice, 4.00 h): 9.20 pg/mL | Plasma Concentration of Interferon Alpha (Mu-IFN-α), Individual Value ([1]; mice, 4.00 h, listed as Val-Isatoribine, Dihydrochloride, 73 mg/kg): BQL^25 pg/mL and 27.6 pg/mL and BQL (Below the Quantifiable Limit < 12.5 pg/mL) | Plasma Concentration of Interferon Alpha (Mu-IFN-α), Mean ([1]; mice, 5.00 h): 0.00 pg/mL | Plasma Concentration of Interferon Alpha (Mu-IFN-α), Individual Value ([1]; mice, 5.00 h, listed as Val-Isatoribine, Dihydrochloride, 73 mg/kg): BQL (Below the Quantifiable Limit < 12.5 pg/mL); also recorded: BQL^25 pg/mL | mice with interferon detected in plasma [1, 3]: 10 of the 30 | proportion of mice exhibiting an interferon response [1, 3]: 30% | maximum concentrations of isatoribine compared to isatoribine itself [2]: at least doubled | GI lesions (beagle dogs; oral): No GI lesions were found | Emesis or loose stool (beagle dogs; [4]): Neg. | GI lesions or irritation (beagle dogs; [4]): Neg. | Emesis or loose stool (beagle dogs; [5]): Neg. | GI lesions or irritation (beagle dogs; [5]): Neg. | Emesis or loose stool (beagle dogs; [6]): Neg. | GI lesions or irritation (beagle dogs; [6]): Neg. | Emesis or loose stool (beagle dogs; [7]): Neg. | GI lesions or irritation (beagle dogs; [7]): Neg. | GI lesions or irritation (beagle dogs; isatoribine equivalent applied dose 130 mg/kg): Neg. | GI lesions or irritation (beagle dogs; isatoribine equivalent applied dose 260 mg/kg): Neg. | GI lesions or irritation (beagle dogs; isatoribine equivalent applied dose 390 mg/kg): Neg.

COc1nc(N)nc2c1sc(=O)n2[C@@H]1O[C@H](CO)[C@@H](O)[C@H]1O [Compound 14, 5-Amino-3-β-D-ribofuranosyl-7-methoxy-thiazolo[4,5-d]pyrimidin-2-one]
melting point: > 160 °C (dec.)

Nc1nc(N)c2sc(=O)n([C@@H]3O[C@H](CO)[C@@H](O)[C@H]3O)c2n1 [Compound 15, 5,7-Diamino-3-β-D-ribofuranosylthiazolo[4,5-d]pyrimidin-2-one]
melting point: > 155 °C (dec.)

CNc1nc(N)nc2c1sc(=O)n2[C@@H]1O[C@H](CO)[C@@H](O)[C@H]1O [Compound 18]
melting point: > 108 °C

CN(C)c1nc(N)nc2c1sc(=O)n2[C@@H]1O[C@H](CO)[C@@H](O)[C@H]1O [Compound 20, 5-Amino-7-dimethylamino-3-β-D-ribofuranosylthiazolo[4,5-d]pyrimidin-2-one]
melting point: > 112 °C

Nc1nc(NC2CCCC2)c2sc(=O)n([C@@H]3O[C@H](CO)[C@@H](O)[C@H]3O)c2n1 [Compound 22, 5-Amino-7-cyclopentylamino-3-β-D-ribofuranosylthiazolo[4,5-d]pyrimidin-2-one]
melting point: > 108 °C (dec.)

Nc1nc(N2CCCC2)c2sc(=O)n([C@@H]3O[C@H](CO)[C@@H](O)[C@H]3O)c2n1 [Compound 23, 5-Amino-7-pyrrolidino-3-β-D-ribofuranosylthiazolo[4,5-d]pyrimidin-2-one]
melting point: > 112.4 °C (dec.)

CC(=O)OC[C@H]1O[C@@H](n2c(=O)sc3cnc(N)nc32)[C@H](OC(C)=O)[C@@H]1OC(C)=O [Compound 78, 5-Amino-3-(2′,3′,5′-tri-O-acetyl-β-D-ribofuranosyl)-3H-thiazolo[4,5-d]pyrimidin-2-one]
melting point: 121 to 123 °C | Papp A→B (in vitro): 60 ×10⁻⁶ cm/s | Caco2 transport compared with 79 (Caco-2 cells): significantly improved transport over 79

Nc1ncc2sc(=O)n([C@@H]3O[C@H](CO)[C@@H](O)[C@H]3O)c2n1 [Compound 79, 5-Amino-3-β-D-ribofuranosyl-3H-thiazolo-[4,5-d]pyrimidin-2-one]
melting point: 220 °C (dec.) | Papp A→B (in vitro): 10 ×10⁻⁶ cm/s

CC(=O)O[C@@H]1[C@H](OC(C)=O)[C@@H](CO)O[C@H]1n1c(=O)sc2cnc(N)nc21 [Compound 89, 5-Amino-3-(2′,3′-di-O-acetyl-β-D-ribofuranosyl)-3H-thiazolo[4,5-d]pyrimidin-2-one]
melting point: 109 to 111 °C | Papp A→B (in vitro): 20 ×10⁻⁶ cm/s | Caco2 transport compared with 79 (Caco-2 cells): significantly improved transport over 79
